Laboratory results from the supplement of paper PMC6045584.
± gives the standard deviation of the averaged measurements.

Experiments:
MK-1775 = compound: C=CCn1c(=O)c2cnc(Nc3ccc(N4CCN(C)CC4)cc3)nc2n1-c1cccc(C(C)(C)O)n1 [MK-1775]; test: surviving fraction relative to DMSO-only wells; higher = less growth inhibition; conditions: exposure time: 5 days
Outline: (§1)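 Each tumour cell line was screened three times, and only lines with replicate Pearson r >0.7 and median Z' >0.3 were kept. Cells in log phase were seeded at 250–500 per well in 384-well plates, left 24 hours, then exposed continuously for five days to inhibitors at 0.5, 1, 5, 10, 50, 100, 500 and 1000 nM. Viability was read as CellTiter-Glo luminescence, with surviving fraction normalised to the median of DMSO-only wells.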

BLEOMYCIN = compound: Cc1c(N)nc([C@H](CC(N)=O)NC[C@H](N)C(N)=O)nc1C(=O)N[C@H](C(=O)N[C@H](C)[C@@H](O)[C@H](C)C(=O)N[C@H](C(=O)NCCc1nc(-c2nc(C(=O)NCCC[S+](C)C)cs2)cs1)[C@@H](C)O)[C@@H](OC1OC(CO)C(O)C(O)C1OC1OC(CO)C(O)C(OC(N)=O)C1O)c1cnc[nH]1 [BLEOMYCIN]; test: as above; conditions: exposure time: 5 days
Outline: as §1

HELA CERVIX
surviving fraction (MK-1775; 0.5 nM): 1.04 ± 0.025 | surviving fraction (MK-1775; 1 nM): 1.07 ± 0.045 | surviving fraction (MK-1775; 5 nM): 1.02 ± 0.064 | surviving fraction (MK-1775; 10 nM): 0.993 ± 0.059 | surviving fraction (MK-1775; 50 nM): 1.15 ± 0.039 | surviving fraction (MK-1775; 100 nM): 1.113 ± 0.0066 | surviving fraction (MK-1775; 500 nM): 0.0972 ± 0.0083 | surviving fraction (MK-1775; 1000 nM): 0.0538 ± 0.0035 | surviving fraction (BLEOMYCIN; 0.5 nM): 0.972 ± 0.026 | surviving fraction (BLEOMYCIN; 1 nM): 0.932 ± 0.02 | surviving fraction (BLEOMYCIN; 5 nM): 0.958 ± 0.024 | surviving fraction (BLEOMYCIN; 10 nM): 0.963 ± 0.027 | surviving fraction (BLEOMYCIN; 50 nM): 1.035 ± 0.0087 | surviving fraction (BLEOMYCIN; 100 nM): 1.07 ± 0.061 | surviving fraction (BLEOMYCIN; 500 nM): 0.803 ± 0.032 | surviving fraction (BLEOMYCIN; 1000 nM): 0.6 ± 0.062

HOS BONE
surviving fraction (MK-1775; 0.5 nM): 1.02 ± 0.017 | surviving fraction (MK-1775; 1 nM): 1.02 ± 0.011 | surviving fraction (MK-1775; 5 nM): 1.05 ± 0.039 | surviving fraction (MK-1775; 10 nM): 1.03 ± 0.027 | surviving fraction (MK-1775; 50 nM): 1.027 ± 0.0056 | surviving fraction (MK-1775; 100 nM): 0.98 ± 0.028 | surviving fraction (MK-1775; 500 nM): 0.15 ± 0.019 | surviving fraction (MK-1775; 1000 nM): 0.065 ± 0.0027 | surviving fraction (BLEOMYCIN; 0.5 nM): 0.936 ± 0.0079 | surviving fraction (BLEOMYCIN; 1 nM): 0.926 ± 0.023 | surviving fraction (BLEOMYCIN; 5 nM): 0.9497 ± 0.0038 | surviving fraction (BLEOMYCIN; 10 nM): 0.94 ± 0.017 | surviving fraction (BLEOMYCIN; 50 nM): 1 ± 0.035 | surviving fraction (BLEOMYCIN; 100 nM): 0.984 ± 0.014 | surviving fraction (BLEOMYCIN; 500 nM): 0.589 ± 0.043 | surviving fraction (BLEOMYCIN; 1000 nM): 0.291 ± 0.039

HOSMNG BONE
surviving fraction (MK-1775; 0.5 nM): 1.04 ± 0.027 | surviving fraction (MK-1775; 1 nM): 0.978 ± 0.061 | surviving fraction (MK-1775; 5 nM): 0.935 ± 0.091 | surviving fraction (MK-1775; 10 nM): 0.977 ± 0.11 | surviving fraction (MK-1775; 50 nM): 1.01 ± 0.072 | surviving fraction (MK-1775; 100 nM): 1.07 ± 0.063 | surviving fraction (MK-1775; 500 nM): 0.143 ± 0.013 | surviving fraction (MK-1775; 1000 nM): 0.059 ± 0.0076 | surviving fraction (BLEOMYCIN; 0.5 nM): 0.966 ± 0.025 | surviving fraction (BLEOMYCIN; 1 nM): 0.983 ± 0.011 | surviving fraction (BLEOMYCIN; 5 nM): 0.992 ± 0.015 | surviving fraction (BLEOMYCIN; 10 nM): 1.01 ± 0.021 | surviving fraction (BLEOMYCIN; 50 nM): 1.05 ± 0.048 | surviving fraction (BLEOMYCIN; 100 nM): 1.03 ± 0.083 | surviving fraction (BLEOMYCIN; 500 nM): 0.984 ± 0.029 | surviving fraction (BLEOMYCIN; 1000 nM): 0.845 ± 0.035

HSSYII SYNOVIAL
surviving fraction (MK-1775; 0.5 nM): 1.05 ± 0.034 | surviving fraction (MK-1775; 1 nM): 1 ± 0.03 | surviving fraction (MK-1775; 5 nM): 1.002 ± 0.0055 | surviving fraction (MK-1775; 10 nM): 0.884 ± 0.012 | surviving fraction (MK-1775; 50 nM): 0.628 ± 0.035 | surviving fraction (MK-1775; 100 nM): 0.12 ± 0.0027 | surviving fraction (MK-1775; 500 nM): 0.147 ± 0.064 | surviving fraction (MK-1775; 1000 nM): 0.0442 ± 0.0045 | surviving fraction (BLEOMYCIN; 0.5 nM): 0.797 ± 0.068 | surviving fraction (BLEOMYCIN; 1 nM): 0.872 ± 0.045 | surviving fraction (BLEOMYCIN; 5 nM): 0.768 ± 0.045 | surviving fraction (BLEOMYCIN; 10 nM): 0.788 ± 0.017 | surviving fraction (BLEOMYCIN; 50 nM): 0.6562 ± 0.0056 | surviving fraction (BLEOMYCIN; 100 nM): 0.572 ± 0.029 | surviving fraction (BLEOMYCIN; 500 nM): 0.224 ± 0.014 | surviving fraction (BLEOMYCIN; 1000 nM): 0.14 ± 0.0027

HT1080 SOFT TISSUE
surviving fraction (MK-1775; 0.5 nM): 1.02 ± 0.03 | surviving fraction (MK-1775; 1 nM): 1.01 ± 0.017 | surviving fraction (MK-1775; 5 nM): 0.992 ± 0.019 | surviving fraction (MK-1775; 10 nM): 1.02 ± 0.023 | surviving fraction (MK-1775; 50 nM): 0.638 ± 0.025 | surviving fraction (MK-1775; 100 nM): 0.277 ± 0.012 | surviving fraction (MK-1775; 500 nM): 0.113 ± 0.015 | surviving fraction (MK-1775; 1000 nM): 0.091 ± 0.0089 | surviving fraction (BLEOMYCIN; 0.5 nM): 1.001 ± 0.0036 | surviving fraction (BLEOMYCIN; 1 nM): 0.965 ± 0.044 | surviving fraction (BLEOMYCIN; 5 nM): 0.935 ± 0.018 | surviving fraction (BLEOMYCIN; 10 nM): 0.886 ± 0.024 | surviving fraction (BLEOMYCIN; 50 nM): 0.798 ± 0.071 | surviving fraction (BLEOMYCIN; 100 nM): 0.7 ± 0.046 | surviving fraction (BLEOMYCIN; 500 nM): 0.402 ± 0.0042 | surviving fraction (BLEOMYCIN; 1000 nM): 0.324 ± 0.012

HU09 BONE
surviving fraction (MK-1775; 0.5 nM): 1.02 ± 0.088 | surviving fraction (MK-1775; 1 nM): 0.916 ± 0.096 | surviving fraction (MK-1775; 5 nM): 1.009 ± 0.01 | surviving fraction (MK-1775; 10 nM): 0.99 ± 0.049 | surviving fraction (MK-1775; 50 nM): 0.831 ± 0.14 | surviving fraction (MK-1775; 100 nM): 0.518 ± 0.045 | surviving fraction (MK-1775; 500 nM): 0.06 ± 0.005 | surviving fraction (MK-1775; 1000 nM): 0.0393 ± 0.0049 | surviving fraction (BLEOMYCIN; 0.5 nM): 0.805 ± 0.015 | surviving fraction (BLEOMYCIN; 1 nM): 0.923 ± 0.031 | surviving fraction (BLEOMYCIN; 5 nM): 0.9 ± 0.084 | surviving fraction (BLEOMYCIN; 10 nM): 0.831 ± 0.058 | surviving fraction (BLEOMYCIN; 50 nM): 0.883 ± 0.083 | surviving fraction (BLEOMYCIN; 100 nM): 0.761 ± 0.037 | surviving fraction (BLEOMYCIN; 500 nM): 0.381 ± 0.013 | surviving fraction (BLEOMYCIN; 1000 nM): 0.246 ± 0.028

HUO3N1 BONE
surviving fraction (MK-1775; 0.5 nM): 0.979 ± 0.036 | surviving fraction (MK-1775; 1 nM): 0.941 ± 0.032 | surviving fraction (MK-1775; 5 nM): 1 ± 0.034 | surviving fraction (MK-1775; 10 nM): 1.01 ± 0.039 | surviving fraction (MK-1775; 50 nM): 0.995 ± 0.02 | surviving fraction (MK-1775; 100 nM): 0.843 ± 0.041 | surviving fraction (MK-1775; 500 nM): 0.348 ± 0.014 | surviving fraction (MK-1775; 1000 nM): 0.204 ± 0.015 | surviving fraction (BLEOMYCIN; 0.5 nM): 0.898 ± 0.053 | surviving fraction (BLEOMYCIN; 1 nM): 0.897 ± 0.0087 | surviving fraction (BLEOMYCIN; 5 nM): 0.924 ± 0.016 | surviving fraction (BLEOMYCIN; 10 nM): 0.908 ± 0.044 | surviving fraction (BLEOMYCIN; 50 nM): 0.957 ± 0.031 | surviving fraction (BLEOMYCIN; 100 nM): 0.892 ± 0.059 | surviving fraction (BLEOMYCIN; 500 nM): 0.676 ± 0.0053 | surviving fraction (BLEOMYCIN; 1000 nM): 0.532 ± 0.025

JIMT1 BREAST
surviving fraction (MK-1775; 0.5 nM): 1.02 ± 0.021 | surviving fraction (MK-1775; 1 nM): 0.987 ± 0.016 | surviving fraction (MK-1775; 5 nM): 0.989 ± 0.01 | surviving fraction (MK-1775; 10 nM): 0.991 ± 0.012 | surviving fraction (MK-1775; 50 nM): 0.4405 ± 0.0039 | surviving fraction (MK-1775; 100 nM): 0.227 ± 0.0077 | surviving fraction (MK-1775; 500 nM): 0.0768 ± 0.0097 | surviving fraction (MK-1775; 1000 nM): 0.0532 ± 0.0013 | surviving fraction (BLEOMYCIN; 0.5 nM): 0.823 ± 0.056 | surviving fraction (BLEOMYCIN; 1 nM): 0.82 ± 0.043 | surviving fraction (BLEOMYCIN; 5 nM): 0.842 ± 0.019 | surviving fraction (BLEOMYCIN; 10 nM): 0.874 ± 0.048 | surviving fraction (BLEOMYCIN; 50 nM): 0.952 ± 0.059 | surviving fraction (BLEOMYCIN; 100 nM): 0.927 ± 0.028 | surviving fraction (BLEOMYCIN; 500 nM): 0.825 ± 0.058 | surviving fraction (BLEOMYCIN; 1000 nM): 0.698 ± 0.059
